Values quoted from earlier work as cited in paper PMC7761982, “FDA-Approved Drugs with Potent In Vitro Antiviral Activity against Severe Acute Respiratory Syndrome Coronavirus 2” (Pharmaceuticals, 2020).

Tested on: SARS-CoV-2
Conditions: in vitro; read-out: IC50 against SARS-CoV-2 (reported); cited from earlier work

In the case of `CC(=O)Oc1ccccc1C(=O)Nc1ncc([N+](=O)[O-])s1` [Nitazoxanide], the IC50 is given as 2120 nM.
